Residues, ends and D or L forms follow the SMILES beside them.
Experiment: Identification of absorbed peptides in plasma (PDA-HPLC, LC-MS/MS)
Format: in vivo
Details: pigs fed Peptide Composition 1 (Example 1), blood collected during dissection; 3 peptide peaks present
Protocol: First, between 3 and 5 day-old 18 pigs were divided into 3 groups and they were bred for 3 days. Then the groups were designated as test groups (Example 1 and Comparative Example 1) and a control group (Comparative Example 2) and 1.25 g of dextran sulfate per kg of body weight was given as drinking water for 5 days (DSS treatment). Then, 250 mg of Peptide Composition 1 per kg of body weight was fed for 5 days in Example 1, 250 mg of Peptide Composition 2 per kg of body weight was fed for 5 days in Comparative Example 1, and alanine corresponding to the nitrogen content of the peptide was fed in Comparative Example 2. After that, the intestinal tract cells were collected during dissection and cytokines were measured. Comparative Example 2 corresponds to the control. (Dextran sulfate is a substance which induces bowel inflammation. International J. of Colorectal Disease, 15, 144-160 (2000))
Blood was collected during dissection and plasma was isolated, and then the structural analysis of a peak obtained by PDA-HPLC was carried out by LC-MS/MS to identify an amino acid sequence of the peptides.

CC(C)C[C@H](NC(=O)[C@@H](N)Cc1ccccc1)C(=O)N[C@H](C(=O)O)C(C)C [FLV, Phe-Leu-Val] (H-Phe-Leu-Val-OH; N-terminus and C-terminus assumed)
peptide peak present in plasma: largest peak
